Patent US20230241024A1, “METHODS OF TREATING METABOLIC DISORDERS” (Sunovion Pharmaceuticals Inc., priority 2021, published 2023)

Legend:
[1] = test system: lean, fasted, male CD1 mice; assay: Acute intravenous glucose tolerance test (IVGTT), plasma glucose and insulin (Example 6)
Protocol: (§1) A vehicle control group was included in the study design. […] Blood samples were taken at various timepoints during the test and subsequently assessed for plasma glucose and insulin content.
Via a lateral tail vein, a baseline blood sample (B1; 30 µl) was taken from all animals prior to vehicle or drug treatment. Five minutes later, mice were dosed with Treatment 1 detailed by the oral route (see above table; approx. 30 minutes pre-glucose). Thirty minutes later, mice were dosed with Treatment 2 by the intravenous route (by a lateral tail vein). […] A B2 sample (30 µl) was also taken briefly before glucose administration. All blood samples (from the tail vein) were collected into lithium heparinised tubes (Sarstedt Microvette CB300LH) and plasma separated by centrifugation to produce a single aliquot of plasma which was frozen (approx. -80° C.) and subsequently assayed for glucose (Thermoelectron infinity glucose reagent, TR15421) and insulin (Alpco Ultrasensitive mouse insulin ELISA) as single replicates.

lean male C57BL/6J mice = assay: Acute oral glucose tolerance test (OGTT), plasma glucose and insulin, lean mice (Example 1.1); set-up: Plasma glucose AUC Mean: dose or concentration left out as unconfirmed
Protocol: as §1
Mice were weighed on the day of arrival (Thursday) and singly housed upon arrival and throughout the study in polypropylene cages on a normal phase 12 h light-dark cycle (lights on 07:00). Cages contained sawdust, red acrylic house, red acrylic tunnel, sizzlenest and nestlet at a temperature of 21±4° C. Upon arrival, mice were weighed and given wet mash to aid recovery from transport. Mice were weighed the following day and on the Monday of the following week.
Experimental Procedures: Animals underwent a three-day handling phase, which commenced five days after arrival. On the final day of handling the mice were dosed orally once with vehicle. At the start of the handling phase, animals were weighed (to the nearest 0.1 g using an electronic top-pan balance) and allocated into 6 weight-matched treatment groups by a Statistician. On the day of baseline dosing, mice were fasted for approximately 16 hours to a timed schedule, beginning at 16:45. The mice were placed into individual clean cages with access to water, but not food. The following morning the mice were moved to a separate room which was maintained with the same environmental conditions and underwent an OGTT. […] Five minutes later, the mice in groups A, C, D, E and F were dosed by the oral route (30 minutes pre-glucose). […] All mice were given an oral glucose load of D-glucose at a dose of 2.0 g/kg (400 mg/mL solution; dose volume 5 mL/kg). Further blood samples (30 µl) were taken 3 minutes before glucose administration (B2) and at 15 (20 µl), 30 (20 µl), 60 (25 µl) and 120 (25 µl) minutes post glucose administration. All blood samples were collected into lithium heparinised tubes (Sarstedt Microvette CB300LH) and plasma separated by centrifugation to produce a single aliquot of plasma which was frozen (-80° C.) and subsequently assayed for glucose (Thermoelectron infinity glucose reagent, TR15421) and insulin (Alpco mouse ultrasensitive insulin kit 80 INSMSU-E10).
Upon completion of the OGTT, all animals were humanely killed by a Schedule 1 method (exposure to a rising concentration of CO2 with confirmation of death by cervical dislocation). A terminal blood sample was taken from groups A, C, D, E and F only by cardiac puncture into a lithium heparin-coated tube (Sarstedt CB300LH) and the plasma separated by centrifugation.

male db/db mice = assay: Acute oral glucose tolerance test (OGTT), plasma glucose and insulin, diabetic db/db mice (Example 1.2)
Protocol: as §1
Mice were weighed on the day of arrival (Thursday) and group housed in polypropylene cages on a normal phase 12 h light-dark cycle (lights on 07:00). Cages contained sawdust, red house, red tunnel, Sizzlenest and nestlet at a temperature of 24±2° C. Upon arrival, mice were weighed and given wet mash to aid recovery from transport. Mice were weighed the following day and on the Monday of the following week.
Experimental Procedures: Animals underwent a three-day handling phase, which commenced five days after arrival. On the final day of handling the mice were dosed orally once with vehicle. At the start of the handling phase, animals were weighed (to the nearest 0.1 g using an electronic top-pan balance) and allocated into 6, weight matched treatment groups by a Statistician. On the day of baseline dosing, mice were fasted for approximately 16 hours to a timed schedule, beginning at 16:45. The mice were placed into individual clean cages with access to water, but not food. The following morning the mice were moved to a separate room which was maintained with the same environmental conditions and underwent an OGTT. […] Five minutes later, the mice in groups A, C, D, E and F were dosed by the oral route (30 minutes pre-glucose). […] All mice were given an oral glucose load of D-glucose at a dose of 2.0 g/kg (400 mg/mL solution; dose volume 5 mL/kg). Further blood samples (30 µl) were taken 3 minutes before glucose administration (B2) and at 15 (20 µl), 30 (20 µl), 60 (25 µl) and 120 (25 µl) minutes post glucose administration. All blood samples were collected into lithium heparinised tubes (Sarstedt Microvette CB300LH) and plasma separated by centrifugation to produce a single aliquot of plasma which was frozen (-80° C.) and subsequently assayed for glucose (Thermoelectron infinity glucose reagent, TR15421) and insulin (Alpco mouse ultrasensitive insulin kit 80 INSMSU-E10).
Upon completion of the OGTT, all animals were humanely killed by a Schedule 1 method (exposure to a rising concentration of CO2 with confirmation of death by cervical dislocation). A terminal blood sample was taken from groups A, C, D, E and F only by cardiac puncture into a lithium heparin-coated tube (Sarstedt CB300LH) and the plasma separated by centrifugation. A single plasma aliquot (approximately 100 µl) was stored frozen prior to shipment of the compound to Charles River Laboratories, USA.

[2] = 40 µg/kg iv group, Post-treatment baseline (B2)
[3] = 40 µg/kg iv with Glucose 1 g/kg
[4] = 40 µg/kg iv with Glucose 1 g/kg, 5 minutes
[5] = 40 µg/kg iv with Glucose 1 g/kg, 10 minutes
[6] = 40 µg/kg iv with Glucose 1 g/kg, 30 minutes
[7] = 40 µg/kg iv with Glucose 1 g/kg, 60 minutes
[8] = 15 minutes, Exendin-4 1 µg/kg ip
[9] = 30 minutes, Exendin-4 1 µg/kg ip
[10] = 60 minutes, Exendin-4 1 µg/kg ip
[11] = 120 minutes, Exendin-4 1 µg/kg ip
[12] = AUC above baseline (0-60 minutes), Exendin-4 1 µg/kg ip
[13] = AUC above baseline (0-120 minutes), Exendin-4 1 µg/kg ip
[14] = Area under curve (0-60 minutes), Exendin-4 1 µg/kg ip
[15] = Area under curve (0-120 minutes), Exendin-4 1 µg/kg ip
[16] = Area under curve (0-120 minutes), Exendin-4 ip
[17] = Post-treatment baseline (B2), Exendin-4 1 µg/kg ip
[18] = 15 minutes, Exendin-4 300 µg/kg ip
[19] = 30 minutes, Exendin-4 300 µg/kg ip
[20] = 60 minutes, Exendin-4 300 µg/kg ip
[21] = 120 minutes, Exendin-4 300 µg/kg ip
[22] = AUC above baseline (0-60 minutes), Exendin-4 300 µg/kg ip
[23] = AUC above baseline (0-120 minutes), Exendin-4 300 µg/kg ip
[24] = Area under curve (0-60 minutes), Exendin-4 300 µg/kg ip
[25] = Area under curve (0-60 minutes), Exendin-4 300 µpg/kg ip
[26] = Area under curve (0-120 minutes), Exendin-4 300 µg/kg ip
[27] = Area under curve (0–120 minutes), Exendin-4 300 µg/kg ip
[28] = Post-treatment baseline (B2), Exendin-4 300 µg/kg ip

For “Exendin-4: GLP 1 receptor agonist utilised as a positive control”, the “Plasma glucose % of vehicle” value [1, 2] was 98.6%, the “Plasma glucose Mean” value [1, 2] was 9.30 mM and the “Plasma insulin % of vehicle” value [1, 2] was 95.1%. The “Plasma insulin Mean” value [1, 2] was 0.17 ng/mL, the “Plasma glucose - AUC above baseline (AUCB2) (0-60 minutes), Mean” value [1, 3] was 3.22 mM·h and the “Plasma glucose AUC (0-60 minutes), % of vehicle” value [1, 3] was 73.5%. For the same substance, the “Plasma glucose AUC, Area under curve (0-60 minutes), Mean” value [1, 3] was 12.65 mM·h, the “Plasma glucose AUCB2 (0-60 minutes), Difference from vehicle” value [1, 3] was -4.43 mM·h and the “Plasma insulin - AUC above baseline (AUCB2) (0-60 minutes), Mean” value [1, 3] was 0.73 ng·h/mL. For the same substance, the “Plasma insulin - Area under curve AUC (0-60 minutes), Mean” value [1, 3] was 0.93 ng·h/mL, the “Plasma insulin AUC (0-60 minutes), % of vehicle” value [1, 3] was 218.8% and the “Plasma insulin AUCB2 (0-60 minutes), Difference from vehicle” value [1, 3] was 0.48 ng·h/mL. The “Plasma glucose % of vehicle” value [1, 4] was 92.6%, the “Plasma glucose Mean” value [1, 4] was 28.43 mM and the “Plasma insulin % of vehicle” value [1, 4] was 347.3%. For the same substance, the “Plasma insulin Mean” value [1, 4] was 1.99 ng/mL, the “Plasma glucose % of vehicle” value [1, 5] was 89.4% and the “Plasma glucose Mean” value [1, 5] was 22.15 mM. For the same substance, the “Plasma insulin % of vehicle” value [1, 5] was 327.2%, the “Plasma insulin Mean” value [1, 5] was 1.84 ng/mL and the “Plasma glucose % of vehicle” value [1, 6] was 59.0%. The “Plasma glucose Mean” value [1, 6] was 8.35 mM, the “Plasma insulin % of vehicle” value [1, 6] was 149.8% and the “Plasma insulin Mean” value [1, 6] was 0.57 ng/mL. For the same substance, the “Plasma glucose % of vehicle” value [1, 7] was 57.8%, the “Plasma glucose Mean” value [1, 7] was 6.36 mM and the “Plasma insulin % of vehicle” value [1, 7] was 117.2%. For the same substance, the “Plasma insulin Mean” value [1, 7] was 0.42 ng/mL, the “plasma insulin vs vehicle” value ([1]; Exendin-4 40 µg/kg iv, 5, 10 and 30 minutes post glucose load) was “statistically significant increase” and the Plasma insulin peak ([1]; Exendin-4 40 µg/kg iv, 5 minutes post glucose load) was 1.99 ng/mL. The “Plasma glucose % of vehicle” value (lean male C57BL/6J mice; [8]) was 65.9%, the “Plasma glucose Mean” value (lean male C57BL/6J mice; [8]) was 15.13 mM and the “Plasma insulin % of vehicle” value (lean male C57BL/6J mice; [8]) was 154.4%. The “Plasma insulin Mean” value (lean male C57BL/6J mice; [8]) was 1.92 ng/mL, the “Plasma glucose % of vehicle” value (lean male C57BL/6J mice; [9]) was 53.3% and the “Plasma glucose Mean” value (lean male C57BL/6J mice; [9]) was 12.81 mM. The “Plasma insulin % of vehicle” value (lean male C57BL/6J mice; [9]) was 110.3%, the “Plasma insulin Mean” value (lean male C57BL/6J mice; [9]) was 1.10 ng/mL and the “Plasma glucose % of vehicle” value (lean male C57BL/6J mice; [10]) was 58.4%. For the same substance, the “Plasma glucose Mean” value (lean male C57BL/6J mice; [10]) was 8.56 mM, the “Plasma insulin % of vehicle” value (lean male C57BL/6J mice; [10]) was 73.1% and the “Plasma insulin Mean” value (lean male C57BL/6J mice; [10]) was 0.37 ng/mL. For the same substance, the “Plasma glucose % of vehicle” value (lean male C57BL/6J mice; [11]) was 74.8%, the “Plasma glucose Mean” value (lean male C57BL/6J mice; [11]) was 7.46 mM and the “Plasma insulin % of vehicle” value (lean male C57BL/6J mice; [11]) was 63.5%. The “Plasma insulin Mean” value (lean male C57BL/6J mice; [11]) was 0.27 ng/mL, the “Plasma glucose AUCB2 Difference from vehicle” value (lean male C57BL/6J mice; [12]) was -8.32 mM·h and the “Plasma glucose AUCB2 Mean” value (lean male C57BL/6J mice; [12]) was 1.49 mM·h. For the same substance, the “Plasma insulin AUC above baseline Difference from vehicle” value (lean male C57BL/6J mice; [12]) was 0.02 ng·h/mL, the “Plasma insulin AUC above baseline Mean” value (lean male C57BL/6J mice; [12]) was 0.72 ng·h/mL and the “Plasma glucose AUCB2 Difference from vehicle” value (lean male C57BL/6J mice; [13]) was -12.99 mM·h. The “Plasma glucose AUCB2 Mean” value (lean male C57BL/6J mice; [13]) was -0.58 mM·h, the “Plasma insulin AUC above baseline Difference from vehicle” value (lean male C57BL/6J mice; [13]) was -0.28 ng·h/mL and the “Plasma insulin AUC above baseline Mean” value (lean male C57BL/6J mice; [13]) was 0.76 ng·h/mL. The “Plasma glucose AUC % of vehicle” value (lean male C57BL/6J mice; [14]) was 61.5%, the “Plasma insulin AUC % of vehicle” value (lean male C57BL/6J mice; [14]) was 125.7% and the “Plasma insulin AUC Mean” value (lean male C57BL/6J mice; [14]) was 1.06 ng·h/mL. The “Plasma insulin AUC % of vehicle” value (lean male C57BL/6J mice; [15]) was 110.9%, the “Plasma insulin AUC Mean” value (lean male C57BL/6J mice; [15]) was 1.48 ng·h/mL and the “Plasma glucose AUC % of vehicle” value (lean male C57BL/6J mice; [16]) was 63.6%. For the same substance, the “Plasma glucose AUC Mean” value (lean male C57BL/6J mice; [16]) was 20.44 mM·h, the “plasma glucose vs vehicle” value (lean male C57BL/6J mice; Exendin-4 1 µg/kg ip 10 minutes before glucose load, all timepoints post-glucose) was “statistically significant (p<0.01) reduction” and the “Plasma glucose % of vehicle” value (lean male C57BL/6J mice; [17]) was 111.4%. The “Plasma glucose Mean” value (lean male C57BL/6J mice; [17]) was 10.66 mM, the “Plasma insulin % of vehicle” value (lean male C57BL/6J mice; [17]) was 221.2% and the “Plasma insulin Mean” value (lean male C57BL/6J mice; [17]) was 0.34 ng/mL. The “Plasma glucose % of vehicle” value (male db/db mice; [18]) was 39.5%, the “Plasma glucose Mean” value (male db/db mice; [18]) was 20.37 mM and the “Plasma insulin % of vehicle” value (male db/db mice; [18]) was 176.4%. The “Plasma insulin Mean” value (male db/db mice; [18]) was 11.33 ng/mL, the “Plasma glucose % of vehicle” value (male db/db mice; [19]) was 34.7% and the “Plasma glucose Mean” value (male db/db mice; [19]) was 19.07 mM. For the same substance, the “Plasma insulin % of vehicle” value (male db/db mice; [19]) was 228.5%, the “Plasma insulin Mean” value (male db/db mice; [19]) was 9.42 ng/mL and the “Plasma glucose % of vehicle” value (male db/db mice; [20]) was 32.9%. The “Plasma glucose Mean” value (male db/db mice; [20]) was 12.91 mM, the “Plasma insulin % of vehicle” value (male db/db mice; [20]) was 210.5% and the “Plasma insulin Mean” value (male db/db mice; [20]) was 8.95 ng/mL. For the same substance, the “Plasma glucose % of vehicle” value (male db/db mice; [21]) was 52.4%, the “Plasma glucose Mean” value (male db/db mice; [21]) was 10.71 mM and the “Plasma insulin % of vehicle” value (male db/db mice; [21]) was 238.7%. For the same substance, the “Plasma insulin Mean” value (male db/db mice; [21]) was 9.87 ng/mL, the “Plasma glucose AUC above baseline Difference from vehicle” value (male db/db mice; [22]) was -28.49 mM·h and the “Plasma glucose AUC above baseline Mean” value (male db/db mice; [22]) was -1.09 mM·h. For the same substance, the “Plasma insulin AUC above baseline Difference from vehicle” value (male db/db mice; [22]) was -0.08 ng·h/mL, the “Plasma insulin AUC above baseline Mean” value (male db/db mice; [22]) was 0.89 ng·h/mL and the “Plasma glucose AUC above baseline Difference from vehicle” value (male db/db mice; [23]) was -47.99 mM·h. For the same substance, the “Plasma glucose AUC above baseline Mean” value (male db/db mice; [23]) was -8.04 mM·h, the “Plasma insulin AUC above baseline Difference from vehicle” value (male db/db mice; [23]) was -0.35 ng·h/mL and the “Plasma insulin AUC above baseline Mean” value (male db/db mice; [23]) was 0.98 ng·h/mL. The “Plasma insulin AUC % of vehicle” value (male db/db mice; [24]) was 213.0%, the “Plasma insulin AUC Mean” value (male db/db mice; [24]) was 9.93 ng·h/mL and the “Plasma glucose AUC % of vehicle” value (male db/db mice; [25]) was 38.8%. For the same substance, the “Plasma glucose AUC Mean” value (male db/db mice; [25]) was 17.77 mM·h, the “Plasma insulin AUC % of vehicle” value (male db/db mice; [26]) was 223.1% and the “Plasma insulin AUC Mean” value (male db/db mice; [26]) was 19.34 ng·h/mL. The “Plasma glucose AUC % of vehicle” value (male db/db mice; [27]) was 39.6%, the “Plasma glucose AUC Mean” value (male db/db mice; [27]) was 30.22 mM·h and the “plasma glucose vs vehicle” value (male db/db mice; Exendin-4 300 µg/kg ip, all timepoints post-glucose) was “statistically significant (p<0.001) reduction”. For the same substance, the “Plasma glucose Mean” value (male db/db mice; [28]) was 17.81 mM, the “Plasma insulin % of vehicle” value (male db/db mice; [28]) was 227.2% and the “Plasma insulin Mean” value (male db/db mice; [28]) was 8.99 ng/mL.
